The source of these data is PMC8286840, “Identifying SARS-CoV-2 antiviral compounds by screening for small molecule inhibitors of Nsp3 papain-like protease” (Biochemical Journal, 2021).

Structures are written as SMILES. Structures can show the parent of a compound that is named as a salt. Where two headings read alike, the source gives them in different places.

The target in assay [1] is T1, SARS-CoV-2 PLpro (nsp3 1564–1878) (Severe acute respiratory syndrome coronavirus 2, UniProt P0DTD1). In words: biochemical. Conditions: high concentration screen, read-out: % of control remaining. On the set-up: FRET-quenched peptide (Pro3) cleavage by PLpro, 10 min pre-incubation, slope over 20 min, normalised to no-compound control.
The target in assay [2] is T1, SARS-CoV-2 PLpro (nsp3 1564–1878). Briefly: biochemical. On the set-up: FRET-quenched peptide (Pro3) cleavage by PLpro, 10 min pre-incubation, slope over 20 min, normalised to no-compound control. Particulars: low concentration screen, read-out: % of control remaining.

On to `CN1C(=O)N[C@@H](Cc2c[nH]c3c(Cl)cccc23)C1=O` [Necrostatin 2 (S enantiomer)], for which the remaining activity at 3.75 µM in assay [1] (Well no.=7166) was determined as 94.3%. The remaining activity at 1.25 µM in assay [2] (Well no.=7166) was 97.6%.
For the compound `Nc1cccc(S(=O)(=O)N2CCCN(S(=O)(=O)c3ccc4c(c3)OCCO4)CC2)c1` [DASA-58], the remaining activity at 3.75 µM in assay [1] (Well no.=8818) came to 96.9%. Besides, the remaining activity at 1.25 µM in assay [2] (Well no.=8818) was determined as 95.3%.
For the compound `O=C(O)CNC(=O)c1c(O)c2ccccc2n(Cc2ccccc2)c1=O` [IOX2], the remaining activity at 3.75 µM in assay [1] (Well no.=5227) amounted to 95.1%. Besides, in assay [2] (Well no.=5227), the remaining activity at 1.25 µM worked out at 101%.
With `O=c1ccc2ccc(O)c(O)c2o1` [7,8-dihydroxy-2H-chromen-2-one], the remaining activity at 3.75 µM in assay [1] (Well no.=5782) came to 108%. The remaining activity at 1.25 µM in assay [2] (Well no.=5782) turned out to be 105%.
Consider `COc1nccc(-c2c(-c3ccc(F)cc3)ncn2C2CCNCC2)n1` [SB242235], for which the remaining activity at 3.75 µM in assay [1] (Well no.=2701) stood at 105%. For the same compound, the remaining activity at 1.25 µM in assay [2] (Well no.=2701) is 105%.
On to `CN(C)C(=O)Oc1cc(OC(=O)N(C)C)cc(C(O)CNC(C)(C)C)c1` (stereo not drawn) [Bambuterol], for which the remaining activity at 3.75 µM in assay [1] (Well no.=1770) worked out at 92.8%. In addition, the remaining activity at 1.25 µM in assay [2] (Well no.=1770) came to 92.4%.
As for `N[C@@H](CCC(=O)O)C(=O)O` [(S)-Glutamic acid], the remaining activity at 3.75 µM in assay [1] (Well no.=6165) was 96.9%. Further, the remaining activity at 1.25 µM in assay [2] (Well no.=6165) was 98.9%.
Consider `CSc1ccc2c(c1)N(CCC1CCCCN1C)c1ccccc1S2` (stereo not drawn) [Thioridazine (hydrochloride)], for which, in assay [1] (Well no.=7376), the remaining activity at 3.75 µM was 98.1%. Moreover, the remaining activity at 1.25 µM in assay [2] (Well no.=7376) is 97.9%.
With `CSc1cccc(Nc2ncc3cc(-c4c(Cl)cccc4Cl)c(=O)n(C)c3n2)c1` [PD173955], the remaining activity at 3.75 µM in assay [1] (Well no.=2985) is 102%. For the same compound, the remaining activity at 1.25 µM in assay [2] (Well no.=2985) is 102%.
Take `NCCC(O)(P(=O)(O)O)P(=O)(O)O` [Pamidronate Disodium]: the remaining activity at 3.75 µM in assay [1] (Well no.=4773) came to 97.3%. Besides, in assay [2] (Well no.=4773), the remaining activity at 1.25 µM is 96.6%.
On to `N=C(N)NCCC[C@H](N)C(=O)O` [L-Arginine HCl], for which the remaining activity at 3.75 µM in assay [1] (Well no.=4987) is 100%. Moreover, the remaining activity at 1.25 µM in assay [2] (Well no.=4987) turned out to be 100%.
For the compound `N=c1ccn2c(n1)O[C@H]1[C@H](O)[C@@H](CO)O[C@H]12` [Cyclocytidine], in assay [1] (Well no.=1936), the remaining activity at 3.75 µM worked out at 103%. Moreover, the remaining activity at 1.25 µM in assay [2] (Well no.=1936) came to 96.5%.
In the case of `C=CCc1ccc(O)c(-c2cc(CC=C)ccc2O)c1` [Magnolol], in assay [1] (Well no.=3659), the remaining activity at 3.75 µM turned out to be 98.1%. For the same compound, the remaining activity at 1.25 µM in assay [2] (Well no.=3659) stood at 96.1%.
Turning to `CN(C)c1ccc(O)c2c1C[C@H]1C[C@H]3[C@H](N(C)C)C(O)=C(C(N)=O)C(=O)[C@@]3(O)C(O)=C1C2=O` [Minocycline], in assay [1] (Well no.=1995), the remaining activity at 3.75 µM is 103%. Further, the remaining activity at 1.25 µM in assay [2] (Well no.=1995) was 103%.
With `O=C(O)CCCc1ccc(N(CCCl)CCCl)cc1` [Chlorambucil], the remaining activity at 3.75 µM in assay [1] (Well no.=327) came to 98.4%; in assay [1] (Well no.=2227) it was 98.3%. Further, the values for the remaining activity at 1.25 µM in assay [2] (Well no.=327) and in assay [2] (Well no.=2227) were 96.4% and 99.2%, respectively.
With `CCN(CC)CCOC(=O)c1cc(Cl)c(N)cc1OC` [SDZ-205,557 hydrochloride], in assay [1] (Well no.=1327), the remaining activity at 3.75 µM is 100%. Further, in assay [2] (Well no.=1327), the remaining activity at 1.25 µM was 101%.
With `Nc1ncnc2c1ncn2[C@@H]1O[C@@H]2CO[P@@](=O)(O)O[C@H]3[C@@H](O)[C@H](n4cnc5c(N)ncnc54)O[C@@H]3CO[P@@](=O)(O)O[C@H]2[C@H]1O` [c-di-AMP], the remaining activity at 3.75 µM in assay [1] (Well no.=7914) is 90.2%; in assay [1] (Well no.=8703), 102%. In addition, the values for the remaining activity at 1.25 µM in assay [2] (Well no.=7914) and in assay [2] (Well no.=8703) were 91.4% and 104%, respectively.
Turning to `CC[C@H]1OC(=O)C[C@@H](O)[C@H](C)[C@@H](O[C@@H]2O[C@H](C)[C@@H](O)[C@H](N(C)C)[C@H]2O)[C@@H](CCN2C[C@H](C)C[C@H](C)C2)C[C@@H](C)C(=O)/C=C/C(C)=C/[C@@H]1CO[C@@H]1O[C@H](C)[C@@H](O)[C@@H](OC)[C@H]1OC` [Tilmicosin], the remaining activity at 3.75 µM in assay [1] (Well no.=4746) came to 96.6%. Further, the remaining activity at 1.25 µM in assay [2] (Well no.=4746) was determined as 97.6%.
With `c1cc(-c2sc(-c3ccncc3)c(-c3ccncc3)c2-c2ccncc2)ccn1` [GANT58], the remaining activity at 3.75 µM in assay [1] (Well no.=5874) amounted to 86.5%. For the same compound, the remaining activity at 1.25 µM in assay [2] (Well no.=5874) turned out to be 94.6%.
`O=C(O)[C@H](Cc1ccc(Nc2nccc3ccncc23)cc1)NC1=C(Br)C(=O)C12CCCCC2` [Zaurategrast]: the remaining activity at 3.75 µM in assay [1] (Well no.=7838) was 99.7%. Further, in assay [2] (Well no.=7838), the remaining activity at 1.25 µM was found to be 98.1%.
As to `COC(=O)[C@H](CCCCn1cccc1CCC(=O)O)NC(=O)CNC(C)=O` [CEP dipeptide 1], the remaining activity at 3.75 µM in assay [1] (Well no.=8606) was found to be 96.4%. Also, the remaining activity at 1.25 µM in assay [2] (Well no.=8606) was found to be 98.6%.
Consider `O=S(=O)(O)c1cc(S(=O)(=O)O)c2c(N=Nc3ccc(S(=O)(=O)O)c4ccccc34)c(O)ccc2c1` [Ponceau 4R], for which, in assay [1] (Well no.=8550), the remaining activity at 3.75 µM came to 102%. Further, the remaining activity at 1.25 µM in assay [2] (Well no.=8550) stood at 104%.
On to `COc1cc2nc(N3CCCN(C)CC3)nc(NC3CCN(Cc4ccccc4)CC3)c2cc1OC` [BIX01294], for which the remaining activity at 3.75 µM in assay [1] (Well no.=5180) was 99.6%. In assay [2] (Well no.=5180), the remaining activity at 1.25 µM turned out to be 102%.
In the case of `CC(C)(C)c1[nH]cnc1/C=c1\[nH]c(=O)/c(=C/c2ccccc2)[nH]c1=O` [Plinabulin (NPI-2358)], the remaining activity at 3.75 µM in assay [1] (Well no.=4834) came to 102%. Further, the remaining activity at 1.25 µM in assay [2] (Well no.=4834) came to 99%.
`O=C(O)CN(CCN(CC(=O)O)CC(=O)O)CCN(CC(=O)O)CC(=O)O` [Diethylenetriaminepentaacetic acid]: the remaining activity at 3.75 µM in assay [1] (Well no.=532) is 97.9%. Further, the remaining activity at 1.25 µM in assay [2] (Well no.=532) is 100%.
Take `CCCCC/C=C\C/C=C\C/C=C\C/C=C\CCCC(=O)NCCO` [Anandamide (20:4, n-6)]: the remaining activity at 3.75 µM in assay [1] (Well no.=4290) worked out at 93%. Besides, in assay [2] (Well no.=4290), the remaining activity at 1.25 µM was determined as 99.3%.
As to `COc1ccc2cc3[n+](cc2c1OC)CCc1cc2c(cc1-3)OCO2`, the remaining activity at 3.75 µM in assay [1] (Well no.=3515) was 92.9%. For the same compound, the remaining activity at 1.25 µM in assay [2] (Well no.=3515) turned out to be 93.4%.
Take `O=C(O)c1cc(=O)cc(C(=O)O)o1` [Chelidonic acid]: the remaining activity at 3.75 µM in assay [1] (Well no.=6682) amounted to 102%. Further, the remaining activity at 1.25 µM in assay [2] (Well no.=6682) worked out at 102%.
For the compound `CC(=O)Nc1ccc(NC(=S)NC(=O)c2ccc(C(C)(C)C)cc2)cc1` [p53 Activator (Tenovin-1)], the remaining activity at 3.75 µM in assay [1] (Well no.=2901) is 96.4%. Also, the remaining activity at 1.25 µM in assay [2] (Well no.=2901) stood at 97.7%.
For the compound `NC[C@@H]1O[C@H](C23CC4CC(CC(C4)C2)C3)Cc2c1ccc(O)c2O` [A-77636 hydrochloride], the remaining activity at 3.75 µM in assay [1] (Well no.=212) was determined as 99.3%. Moreover, the remaining activity at 1.25 µM in assay [2] (Well no.=212) came to 102%.
On to `Cc1c(-c2ccnn2C)cc(C(=O)NCc2ccc(S(C)(=O)=O)cn2)c(=O)n1-c1cccc(C(F)(F)F)c1` [Alvelestat (AZD9668)], for which, in assay [1] (Well no.=9174), the remaining activity at 3.75 µM was determined as 83.8%. Besides, in assay [2] (Well no.=9174), the remaining activity at 1.25 µM was 95.1%.
